Our source for the inhibition and IC50 values is ChEMBL document CHEMBL2434887, “Synthesis and biological evaluation of a new series of N-ylides as protein farnesyltransferase inhibitors” (Bioorg Med Chem Lett, 2013).

Experiment [1] addresses T1, Protein farnesyltransferase (Homo sapiens, UniProt P49354+P49356). The experiment can be described thus: Inhibition of recombinant human farnesyltransferase using Dansyl-GCVLS as substrate at 100 uM measured for 15 mins by fluorimetric analysis relative to control. It counts as protein-complex assay.
The target of experiment [2] is T1, Protein farnesyltransferase. The experiment in a line: Inhibition of recombinant human farnesyltransferase using Dansyl-GCVLS as substrate measured for 15 mins by fluorimetric analysis. In kind it is protein-complex assay.

The inhibition is the relative decrease from the control value, in per cent. As to `CCOC(=O)/C(C#N)=C/[C-](C(=O)c1ccc(OC)cc1)[n+]1ccc(OC)cc1`, the inhibition in experiment [1] was determined as 51%.

Usually IC50 stands for the concentration that inhibits the measured activity by half. In the case of `CCOC(=O)/C(C#N)=C/[C-](C(=O)c1ccc(OC)c(OC)c1)[n+]1ccc(OC)cc1`, the half-maximal inhibitory concentration (IC50) in experiment [2] came to 20.8 µM. The inhibition in experiment [1] amounted to 88%. Taken in the same sequence, the figures for `CCOC(=O)/C(C#N)=C/[C-](C(=O)c1ccccc1)[n+]1ccc(N(C)C)cc1` were 30.9 µM and 68%. Taken in the same sequence, the figures for `CCOC(=O)/C(C#N)=C/[C-](C(=O)c1cc(OC)c(OC)c(OC)c1)[n+]1cc(C)cc(C)c1` were 43.5 µM and 90%.

As for `COc1cc(C(=O)[C-](C=C(C#N)C#N)[n+]2ccc(N(C)C)cc2)cc(OC)c1OC`, the IC50 in experiment [2] was 15.6 µM. The inhibition in experiment [1] was found to be 93%. Regarding `CCOC(=O)/C(C#N)=C/[C-](C(=O)c1ccc(Br)cc1)[n+]1ccc(N(C)C)cc1`, the IC50 in experiment [2] turned out to be 36.4 µM. Also, the inhibition in experiment [1] stood at 100%.

As for `CCOC(=O)/C(C#N)=C/[C-](C(=O)c1ccc(C)cc1)[n+]1ccc(N(C)C)cc1`, the IC50 in experiment [2] came out at 43.6 µM. Moreover, the inhibition in experiment [1] stood at 65%. On to `CCOC(=O)/C(C#N)=C/[C-](C(=O)c1ccc(OC)cc1)[n+]1cc(C)cc(C)c1`, for which the inhibition in experiment [1] amounted to 49%. On to `CN(C)c1cc[n+]([C-](C=C(C#N)C#N)C(=O)c2ccc(C#N)cc2)cc1`, for which the IC50 in experiment [2] was found to be 23.9 µM. Moreover, in experiment [1], the inhibition stood at 77%. The matching figures for `Cc1ccc(C(=O)[C-](C=C(C#N)C#N)[n+]2ccc(N(C)C)cc2)cc1`: 14.5 µM and 89%. Taken in the same sequence, the figures for `COc1ccc(C(=O)[C-](C=C(C#N)C#N)[n+]2ccc(OC)cc2)cc1` were 27.3 µM and 83%.

On to `CN(C)c1cc[n+]([C-](C=C(C#N)C#N)C(=O)c2ccccc2)cc1`, for which the IC50 in experiment [2] was 46.2 µM. For the same molecule, the inhibition in experiment [1] is 79%. Turning to `CCOC(=O)/C(C#N)=C/[C-](C(=O)c1ccc(F)cc1)[n+]1ccc(N(C)C)cc1`, the IC50 in experiment [2] is 62.3 µM. Moreover, the inhibition in experiment [1] worked out at 64%. With `Cc1cc[n+]([C-](C=C(C#N)C#N)C(=O)c2ccccc2)cc1`, the inhibition in experiment [1] amounted to 29%.

On to `CN(C)c1cc[n+]([C-](C=C(C#N)C#N)C(=O)c2ccc(F)cc2)cc1`, for which, in experiment [2], the IC50 stood at 23.6 µM. Further, the inhibition in experiment [1] was 81%. In the case of `CN(C)c1cc[n+]([C-](C=C(C#N)C#N)C(=O)c2ccc3c(c2)NC(=O)CO3)cc1`, the IC50 in experiment [2] was 25.8 µM. Further, the inhibition in experiment [1] was determined as 92%. Taken in the same sequence, the figures for `CN(C)c1cc[n+]([C-](C=C(C#N)C#N)C(=O)c2ccc([N+](=O)[O-])cc2)cc1` were 28.2 µM and 88%. The matching figures for `CCOC(=O)/C(C#N)=C/[C-](C(=O)c1ccc2c(c1)NC(=O)CO2)[n+]1ccc(N(C)C)cc1`: 55.2 µM and 62%. The matching figures for `CCOC(=O)/C(C#N)=C/[C-](C(=O)c1ccc(OC)cc1)[n+]1ccc(N(C)C)cc1`: 62.7 µM and 64%. `CCOC(=O)/C(C#N)=C/[C-](C(=O)c1ccccc1)[n+]1ccc(C)cc1`: the inhibition in experiment [1] came to 45%.

For the molecule `CCOC(=O)/C(C#N)=C/[C-](C(=O)c1ccc(Cl)cc1)[n+]1ccc(N(C)C)cc1`, the IC50 in experiment [2] stood at 31.9 µM. For the same molecule, the inhibition in experiment [1] is 100%. Taken in the same sequence, the figures for `CCOC(=O)/C(C#N)=C/[C-](C(=O)c1ccc(C#N)cc1)[n+]1ccc(N(C)C)cc1` were 46.2 µM and 69%.

`COc1ccc(C(=O)[C-](C=C(C#N)C#N)[n+]2cc(C)cc(C)c2)cc1`: the IC50 in experiment [2] came to 27.4 µM. In addition, the inhibition in experiment [1] came out at 75%.

As for `COc1cc[n+]([C-](C=C(C#N)C#N)C(=O)c2ccc(OC)c(OC)c2)cc1`, in experiment [2], the IC50 stood at 31.4 µM. Moreover, the inhibition in experiment [1] stood at 77%. The matching figures for `CN(C)c1cc[n+]([C-](C=C(C#N)C#N)C(=O)c2ccc(Cl)cc2)cc1`: 12.5 µM and 95%. The matching figures for `CCOC(=O)/C(C#N)=C/[C-](C(=O)c1cc(OC)c(OC)c(OC)c1)[n+]1ccc(N(C)C)cc1`: 48 µM and 73%. Taken in the same sequence, the figures for `COc1ccc(C(=O)[C-](C=C(C#N)C#N)[n+]2ccc(N(C)C)cc2)cc1` were 22.2 µM and 99%. Regarding `CN(C)c1cc[n+]([C-](C=C(C#N)C#N)C(=O)c2ccc(Br)cc2)cc1`, the IC50 in experiment [2] is 19.7 µM. Besides, in experiment [1], the inhibition is 91%. Regarding `CN(C)c1cc[n+]([C-](C=C(C#N)C#N)C(=O)N2c3ccccc3Sc3ccccc32)cc1`, in experiment [2], the IC50 came to 4.67 µM. Consider `COc1cc(C(=O)[C-](C=C(C#N)C#N)[n+]2cc(C)cc(C)c2)cc(OC)c1OC`, for which the IC50 in experiment [2] is 20.1 µM. The inhibition in experiment [1] was 82%.
